From ChEMBL document CHEMBL1129611, “Vesamicol receptor mapping of brain cholinergic neurons with radioiodine-labeled positional isomers of benzovesamicol” (J Med Chem, 1996)

Experiments:
[1] = Tissue distribution of [125I]- labelled compound in mice lung in 0.5 hr; format: functional, tissue-based
[2] = Tissue distribution of [125I]- labelled compound in mice liver in 0.5 hr; format: functional, tissue-based
[3] = Tissue distribution of [125I]- labelled compound in mice striatum in 4 hours; format: functional, tissue-based
[4] = Tissue distribution of [125I]- labelled compound in mice blood in 24 hours; format: functional, tissue-based
[5] = (§1) Tissue distribution of [125I]- labelled compound in mice blood in 4 hours; format: functional, tissue-based
[6] = Tissue distribution of [125I]- labelled compound in mice cortex in 0.5 hours; format: functional, tissue-based
[7] = Tissue distribution of [125I]- labelled compound in mice hippocampus in 4 hours; format: functional, tissue-based
[8] = Tissue distribution of [125I]- labelled compound in mice atria in 4 hours; format: functional
[9] = Tissue distribution of [125I]- labelled compound in mice blood in 0.5 hours; format: functional, tissue-based
[10] = Tissue distribution of [125I]- labelled compound in mice ventricles in 4 hours; format: functional
[11] = Tissue distribution of [125I]- labelled compound in mice atria in 24 hours; format: functional
[12] = Tissue distribution of [125I]- labelled compound in mice cerebellum in 4 hours; format: functional, tissue-based
[13] = Tissue distribution of [125I]- labelled compound in mice […] in 24 hours; format: functional
[14] = Tissue distribution of [125I]- labelled compound in mice hippocampus in 24 hours; format: functional, tissue-based
[15] = Tissue distribution of [125I]- labelled compound in mice lung in 24 hours; format: functional, tissue-based
[16] = Tissue distribution of [125I]- labelled compound in mice striatum in 24 hours; format: functional, tissue-based
[17] = Tissue distribution of [125I]- labelled compound in mice ventricle in 24 hours; format: functional
[18] = Tissue distribution of [125I]- labelled compound in mice liver in 4 hours; format: functional, tissue-based
[19] = Tissue distribution of [125I]- labelled compound in mice […] in 0.5 hours; format: functional
[20] = Tissue distribution of [125I]- labelled compound in mice lung in 4 hours; format: functional, tissue-based
[21] = Tissue distribution of [125I]- labelled compound in mice striatum in 0.5 hours; format: functional, tissue-based
[22] = Tissue distribution of [125I]- labelled compound in mice […] in 4 hours; format: functional
[23] = Tissue distribution of [125I]- labelled compound in mice ventricles in 0.5 hr; format: functional
[24] = Tissue distribution of [125I]- labelled compound in mice liver in 24 hours; format: functional, tissue-based
[25] = Tissue distribution of [125I]- labelled compound in mice cortex in 24 hours; format: functional, tissue-based
[26] = Tissue distribution of [125I]- labelled compound in mice cerebellum in 0.5 hr; format: functional, tissue-based
[27] = Tissue distribution of [125I]- labelled compound in mice cortex in 4 hours; format: functional, tissue-based
[28] = Tissue distribution of [125I]- labelled compound in mice hippocampus in 0.5 hours; format: functional, tissue-based
[29] = Tissue distribution of [125I]- labelled compound in mice cerebellum in 24 hours; format: functional, tissue-based
[30] = Tissue distribution of [125I]- labelled compound in mice latria in 0.5 hr; format: functional
Mus musculus = species: Mus musculus; assay: as §1; format: ADME, organism-based; settings: in vivo
[31] = Tissue distribution of [125I]- labelled compound in mice atria in 0.5 hr; format: functional

O[C@@H]1Cc2cccc(I)c2C[C@H]1N1CCC(c2ccccc2)CC1
Dose/g [1]: 7.57% | Dose/g [2]: 11% | Dose/g [3]: 3.3% | Dose/g [4]: 0.04% | Dose/g [5]: 0.53% | Dose/g [6]: 2.29% | Dose/g [7]: 1.06% | Dose/g [8]: 1.43% | Dose/g [9]: 0.82% | Dose/g [10]: 0.31% | Dose/g [11]: 0.82% | Dose/g [12]: 0.21% | Dose/g [13]: 0.42% | Dose/g [14]: 0.71% | Dose/g [15]: 0.09% | Dose/g [16]: 2.2% | Dose/g [17]: 0.06% | Dose/g [18]: 5.92% | Dose/g [19]: 1.69% | Dose/g [20]: 1.11% | Dose/g [21]: 3.81% | Dose/g [22]: 0.61% | Dose/g [23]: 1.27% | Dose/g [24]: 0.89% | Dose/g [25]: 0.88% | Dose/g [26]: 1.28% | Dose/g [27]: 1.17% | Dose/g [28]: 2.09% | Dose/g [29]: 0.05% | Dose/g [30]: 1.73%

O[C@@H]1Cc2cc(I)ccc2C[C@H]1N1CCC(c2ccccc2)CC1
Dose/g [1]: 13.1% | Dose/g [2]: 19.3% | Dose/g [3]: 1.96% | Dose/g [4]: 0.09% | Dose/g [5]: 0.47% | Dose/g [6]: 2.32% | Dose/g [7]: 1.27% | Dose/g [8]: 2.45% | Dose/g [9]: 1.13% | Dose/g [10]: 1.77% | Dose/g [11]: 0.77% | Dose/g (Mus musculus): 0.47% | Dose/g [12]: 1.23% | Dose/g [13]: 1.35% | Dose/g [14]: 1.48% | Dose/g [15]: 1.74% | Dose/g [16]: 2.32% | Dose/g [17]: 0.27% | Dose/g [18]: 12.7% | Dose/g [19]: 2.16% | Dose/g [20]: 5.86% | Dose/g [21]: 2.34% | Dose/g [22]: 1.42% | Dose/g [23]: 3.29% | Dose/g [24]: 6.48% | Dose/g [25]: 1.74% | Dose/g [26]: 2.06% | Dose/g [27]: 1.62% | Dose/g [28]: 1.99% | Dose/g [29]: 1.06% | Dose/g [31]: 4.37%

O[C@@H]1Cc2ccc(I)cc2C[C@H]1N1CCC(c2ccccc2)CC1
Dose/g [1]: 3.39% | Dose/g [2]: 18% | Dose/g [3]: 3.07% | Dose/g [4]: 0.05% | Dose/g [5]: 0.51% | Dose/g [6]: 2.99% | Dose/g [7]: 1.03% | Dose/g [8]: 0.97% | Dose/g [9]: 1.06% | Dose/g [10]: 0.53% | Dose/g [11]: 0.1% | Dose/g [12]: 0.29% | Dose/g [13]: 0.1% | Dose/g [14]: 0.16% | Dose/g [15]: 0.1% | Dose/g [16]: 0.76% | Dose/g [17]: 0.1% | Dose/g [18]: 6.33% | Dose/g [19]: 2.51% | Dose/g [20]: 0.89% | Dose/g [21]: 3.9% | Dose/g [22]: 0.68% | Dose/g [23]: 1.34% | Dose/g [24]: 0.88% | Dose/g [25]: 0.22% | Dose/g [26]: 2.05% | Dose/g [27]: 1.28% | Dose/g [28]: 2.73% | Dose/g [29]: 0.05% | Dose/g [30]: 2.09%

O[C@@H]1Cc2c(I)cccc2C[C@H]1N1CCC(c2ccccc2)CC1
Dose/g [3]: 0.12% | Dose/g [5]: 0.19% | Dose/g [6]: 1.53% | Dose/g [8]: 0.34% | Dose/g [9]: 1% | Dose/g [10]: 0.23% | Dose/g [12]: 0.08% | Dose/g [21]: 1.64% | Dose/g [23]: 1.25% | Dose/g [26]: 1.22% | Dose/g [27]: 0.1% | Dose/g [30]: 1.64%

O[C@@H]1Cc2ccccc2C[C@H]1N1CCC(c2ccc(I)cc2)CC1
Dose/g [1]: 8.86% | Dose/g [2]: 15.4% | Dose/g [3]: 0.33% | Dose/g [5]: 0.66% | Dose/g [6]: 3.01% | Dose/g [7]: 0.31% | Dose/g [8]: 1.35% | Dose/g [9]: 1.85% | Dose/g [10]: 1.88% | Dose/g [12]: 0.28% | Dose/g [18]: 9.12% | Dose/g [19]: 2.73% | Dose/g [20]: 2.95% | Dose/g [21]: 2.68% | Dose/g [22]: 0.28% | Dose/g [23]: 2.9% | Dose/g [26]: 2.33% | Dose/g [27]: 0.32% | Dose/g [28]: 2.91% | Dose/g [30]: 3.03%
